Assay results: ChEMBL document CHEMBL4725405, “Synthesis and evaluation of 17α-triazolyl and 9α-cyano derivatives of estradiol” (Bioorg Med Chem, 2020)

What was measured:
[1] = molecular target: T1, Estrogen receptor beta (Homo sapiens, UniProt Q92731)
Description: Antagonist activity at full length human ERbeta receptor assessed as inhibition of estradiol-induced activation incubated for 22 to 24 hrs by cell based luciferase reporter gene assay

[2] = molecular target: T1, Estrogen receptor beta; remark: listed apart in the source
[3] = molecular target: T2, Estrogen receptor (Homo sapiens, UniProt P03372)
T2 sequence (P03372 whole entry): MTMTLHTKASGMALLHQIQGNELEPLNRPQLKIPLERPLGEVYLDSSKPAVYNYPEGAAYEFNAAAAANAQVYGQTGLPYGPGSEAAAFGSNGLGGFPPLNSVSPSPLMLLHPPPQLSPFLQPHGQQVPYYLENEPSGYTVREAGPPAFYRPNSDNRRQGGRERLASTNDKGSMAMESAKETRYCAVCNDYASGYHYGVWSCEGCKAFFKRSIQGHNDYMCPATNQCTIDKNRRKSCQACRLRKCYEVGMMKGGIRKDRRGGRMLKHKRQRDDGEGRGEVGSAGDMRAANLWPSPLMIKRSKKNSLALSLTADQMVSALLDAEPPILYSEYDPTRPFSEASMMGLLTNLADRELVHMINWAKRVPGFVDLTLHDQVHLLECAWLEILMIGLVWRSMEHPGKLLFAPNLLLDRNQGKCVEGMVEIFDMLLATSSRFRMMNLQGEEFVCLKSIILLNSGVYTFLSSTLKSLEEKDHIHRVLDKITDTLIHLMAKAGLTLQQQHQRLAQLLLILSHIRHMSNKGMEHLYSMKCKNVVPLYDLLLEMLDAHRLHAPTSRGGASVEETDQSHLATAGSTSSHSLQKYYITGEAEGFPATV

[4] = molecular target: T2, Estrogen receptor; remark: listed apart in the source
Description: Antagonist activity at full length human ERalpha receptor assessed as inhibition of estradiol-induced activation incubated for 22 to 24 hrs by cell based luciferase reporter gene assay

[5] = molecular target: T1, Estrogen receptor beta; remark: listed apart in the source
Description: Agonist activity at full length human ERbeta receptor assessed as transcriptional activity incubated for 22 to 24 hrs by cell based luciferase reporter gene assay

[6] = molecular target: T3, Estrogen receptor (Homo sapiens) (UniProt P03372); test: Agonist activity at full length human ERalpha receptor assessed as transcriptional activity incubated for 22 to 24 hrs by cell based luciferase reporter gene assay relative to control; conditions: filed as agonist
T3 sequence (whole entry): T2 sequence (P03372 whole entry)

[7] = molecular target: T1, Estrogen receptor beta; test: Displacement of fluormone from GST-tagged ERbeta receptor LBD (unknown origin) measured after 60 mins by TR-FRET competitive binding assay relative to control; conditions: filed as agonist

T1 sequence (Q92731 whole entry): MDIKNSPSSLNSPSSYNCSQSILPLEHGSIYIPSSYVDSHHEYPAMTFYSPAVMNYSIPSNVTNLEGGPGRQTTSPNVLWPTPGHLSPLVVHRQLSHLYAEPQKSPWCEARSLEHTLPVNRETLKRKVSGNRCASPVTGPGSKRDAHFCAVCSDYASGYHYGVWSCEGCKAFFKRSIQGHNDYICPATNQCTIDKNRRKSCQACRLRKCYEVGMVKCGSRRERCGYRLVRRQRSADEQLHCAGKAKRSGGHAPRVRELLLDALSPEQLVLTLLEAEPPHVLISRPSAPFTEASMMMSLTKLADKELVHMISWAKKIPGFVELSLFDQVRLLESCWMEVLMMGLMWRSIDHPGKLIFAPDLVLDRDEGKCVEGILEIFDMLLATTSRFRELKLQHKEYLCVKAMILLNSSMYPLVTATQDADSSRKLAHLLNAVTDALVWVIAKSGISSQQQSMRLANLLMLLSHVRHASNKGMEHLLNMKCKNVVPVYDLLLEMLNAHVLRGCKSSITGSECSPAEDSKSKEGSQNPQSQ

Compound	EC50 [1] [nM]	EC50 [2] [nM]	EC50 [3] [nM]	EC50 [4] [nM]	EC50 [5] [nM]	Activity [6] [%]	Activity [7] [%]
C[C@]12CC[C@]3(C#N)c4ccc(O)cc4CC[C@H]3[C@@H]1CC[C@@H]2O	> 25	0.27	0.38	> 5000	0.029	–	–
C[C@]12CC[C@@H]3c4ccc(O)cc4CC[C@H]3[C@@H]1CC[C@@]2(O)c1cn(-c2ccccc2)nn1	–	–	5	> 1000	–	–	–
C#C[C@]1(O)CC[C@H]2[C@@H]3CCc4cc(O)ccc4[C@@]3(C#N)CC[C@@]21C	> 10000	51	22	> 10000	14	–	–
C[C@]12CC[C@]3(C#N)c4ccc(O)cc4CC[C@H]3[C@@H]1CCC2=O	> 5000	78	88	> 10000	9	–	–
C[C@]12CC[C@@H]3c4ccc(O)cc4CC[C@H]3[C@@H]1CC[C@@]2(O)c1cn(-c2cccc(O)c2)nn1	> 10000	12	68	> 1000	21	46	60
C[C@]12CC[C@@H]3c4ccc(O)cc4CC[C@H]3[C@@H]1CC[C@@]2(O)c1cn(CCO)nn1	> 10000	50	149	> 10000	16	–	–
C[C@]12CC[C@@H]3c4ccc(O)cc4CC[C@H]3[C@@H]1CC[C@@]2(O)c1cn(-c2ccc(O)cc2)nn1	> 10000	0.65	0.87	> 10000	0.81	–	–
C[C@]12CC[C@]3(C#N)c4ccc(O)cc4CC[C@H]3[C@@H]1CC[C@@]2(O)c1cn(CCO)nn1	–	4400	–	–	–	–	–
